Earlier results on 2 compounds are cited in US20260248820A1, “USES OF HYDROGENATED CANNABIDIOL (H4CBD) AND ADVANCED METABOLIC SYNDROME” (The Regents of the University of California, priority 2022, published 2026).

Data set [1] concerns endocannabinoid receptors. As to conditions: cited from earlier work.
The conditions of data set [2]: rats without underlying metabolic dysfunction; cited from earlier work.
For data set [3], the system named is rodents. As to conditions: cited from earlier work.
The test system of data set [4] is diet-induced obese (DIO) and non-obese diabetic mice. The note with it: cited from earlier work.
For data set [5] the following is noted: clinical; cited from earlier work.
The test system of data set [6] is PTZ-induced seizure. The note with it: rats; cited from earlier work.

Consider `C=C(C)[C@@H]1CCC(C)=C[C@H]1c1c(O)cc(CCCCC)cc1O` [CBD, Cannabidiol], for which the “Affinity for the endocannabinoid receptors responsible for cannabis intoxication” value in data set [1] is listed as “little affinity”. The Body mass gain result in data set [2] is “inhibit body mass gain”. Besides, in data set [3], the Documented toxicity is > 600 mg/kg. Further, in data set [4], the Incidence of diabetes result is “reduced the incidence of diabetes”. Further, the “Effects of high doses administered clinically” value in data set [5] was “anorexic and diarrheal effects”.
Turning to `CCCCCc1cc(O)c([C@@H]2C=C(C)CC[C@H]2C(C)C)c(O)c1` [H2CBD, dihydrocannabidiol], the “Reduction of PTZ-induced seizure frequency and severity” value in data set [6] is on record as “equal effectiveness to that of CBD”.
